In patent US4981855A, “Medicament for psoriasis” (Takeda Chemical Industries, Ltd., priority 1988, dated 1991):

Tests used:
[1] = tested on: Type III Allergic Reaction (Reversed Passive Arthus Reaction); assay: Type III allergic reaction (reversed passive Arthus reaction) in rats, oral (Experiment 1); assay type: in vivo, Rat (Jcl:SD); details: Rat; for inhibition in vivo at 3 mg/kg: 1 h, 3 mg/kg P.O., one hour before egg albumin, blue spot area vs. control, * P < 0.05, ** P < 0.01, read-out: Inhibition rate (%); for ED50: P.O., read-out: ID50 values
Method: Effect on Type III Allergic Reaction (Reversed Passive Arthus Reaction) in Rats
A group consisting of six Jcl:SD rats (7 week old, male) was used. The hair of the back of the animals was cut, under ether anesthesia, and 1 ml each of a 0.5% solution of egg albumin in physiological saline solution was injected into the tail vein of each test animal, followed by intradermal injection of 0.1 ml of rabbit anti-egg albumin antiserum at each of the left and right sides of the back and a further intradermal injection of 0.1 ml of physiological saline solution at the left side. Three hours later, each animal was intraveneously injected with 1 ml of 1% Evans' blue physiological saline solution. Thirty minutes later, the test animals were exfoliated and the area(mm^2) of each of the blue spots was measured. […] By comparing the area(mm^2) of the blue spot in the test group (treated group) with that of the control group (untreated group), inhibition rate was determined.

[2] = tested on: Reversed Passive Arthus Reaction; assay: Rat reversed passive Arthus reaction, percutaneous ointment (Experiment 2); assay type: in vivo, Rat (Jcl:SD); details: for Inhibition rate (%): ointment (white petrolatum base)
Method: A group consisting of six Jcl:SD rats (7 week old, male) was used. The hair of the back of the animals was cut, under ether anesthesia, and 1 ml each of a 0.5% solution of egg albumin in physiological saline solution was injected into the tail vein of each test animal, followed by intradermal injection of 0.1 ml of rabbit anti-egg albumin antiserum at each of the left and right sides of the back and a further intradermal injection of 0.1 ml of physiological saline solution at the left side. Three hours later, each animal was intraveneously injected with 1 ml of 1% Evans' blue physiological saline solution. Thirty minutes later, the test animals were exfoliated and the area(mm^2) of each of the blue spots was measured. The test sample in a dose of 3 mg/kg was orally administered one hour before the injection of egg albumin. By comparing the area(mm^2) of the blue spot in the test group (treated group) with that of the control group (untreated group), inhibition rate was determined.
In place of the oral administration of 3 mg/kg of each specimen, two type of ointments (of which base is white petrolatum) different in specimen content as given in Table 2 and control petrolatum were applied to the reaction sites in an experiment in a similar manner as in Experiment 1.

[3] = Acute toxicity in mice (Experiment 3); assay type: in vivo, Mouse (Jcl:ICR); details: mouse, in vivo
Description: (§1) The acute toxicity of the compound (A) was examined by using Jcl:ICR mice and JcL:Wistar rats.

Jcl:ICR mice = assay: Acute toxicity in mice (Experiment 3); assay type: in vivo, Mouse (Jcl:ICR); details: mice and rats; intraperitoneal, subcutaneous and oral (Table 3)
Description: as §1

[4] = Acute toxicity in rats (Experiment 3); set-up: species or system Rat (JcL:Wistar); details: rat, in vivo
Description: as §1

[5] = tested on: skin of the backs of rabbits (normal skin and damaged skin); assay: Four-week cumulative skin irritation test in rabbits (Experiment 4); assay type: in vivo, Rabbit; details: 0.25 g once a day for 4 weeks
Description: Four-Week Cumulative Skin Irritation Test in Rabbits [Procedure]
0.25 g of each of white petrolatum (placebo) and 2.5% and 5.0% compound (A) ointments (of which base is white petrolatum) was applied to 2.5×2.5cm test sites (normal skin and damaged skin) formed on the skin of the backs of rabbits once a day for 4 weeks. The skin was observed daily according to the method of Draize [J. H. Draize et al., J. Pharmacol. Exp. Therap. 82, 337 (1944)]. On the day succeeding the completion of the administration, postmortem examinations were carried out and histopathologic examinations were conducted for the skin of the administrated sites.

In the case of `CCn1c(=O)c2c(N)n(C(=O)OC)nc2n(CC)c1=O` [Compound 1], the inhibition in vivo at 3 mg/kg [1] is reported as 35% and the ED50 [1] is reported as 13.7 mg/kg.
Work on `CCCn1c(=O)c2c(N)n(C(=O)OC)nc2n(CCC)c1=O` [Compound 2] yielded an inhibition in vivo at 3 mg/kg [1] of 50% and an ED50 [1] of 2.4 mg/kg.
`CCCn1c(=O)c2c(NC(C)=O)[nH]nc2n(CCC)c1=O` [Compound 3] showed an inhibition in vivo at 3 mg/kg [1] of 55% and an ED50 [1] of 2.9 mg/kg.
In the case of `CCCn1c(=O)c2c(N(C)C)n(C)nc2n(CCC)c1=O` [Compound 4], the inhibition in vivo at 3 mg/kg [1] is reported as 56%.
For `CCCn1c(=O)c2c(N(C)C)nn(C)c2n(CCC)c1=O` [Compound 5], the inhibition in vivo at 3 mg/kg [1] was 53%.
`CCCCn1c(=O)n(CCC)c(=O)c2c(NC)n(C(=O)OC)nc21` [Compound 6] gave an inhibition in vivo at 3 mg/kg [1] of 43% and an ED50 [1] of 5.3 mg/kg.
Work on `CCCCn1c(=O)c2c(NC)n(C(=O)OC)nc2n(CCC)c1=O` [Compound 7] yielded an inhibition in vivo at 3 mg/kg [1] of 49% and an ED50 [1] of 3 mg/kg.
`CCCCn1c(=O)c2c(NC)n(C(=O)OC)nc2n(CCCC)c1=O` [Compound 8] showed an inhibition in vivo at 3 mg/kg [1] of 30% and an ED50 [1] of 30 mg/kg.
`CCCCn1c(=O)c2c(NC)n(C)nc2n(CCCC)c1=O` [Compound 9] gave an inhibition in vivo at 3 mg/kg [1] of 31%.
In the case of `CCCCn1c(=O)n(CCC)c(=O)c2c(NC)n(C(=O)OC)nc21` [Compound (A)], the “Inhibition rate (%)” value ([2]; 1.25 mg/site, *p < 0.05 vs. control) is reported as 46%, the “Inhibition rate (%)” value ([2]; 2.5 mg/site, **p < 0.01 vs. control) is reported as 59% and the “effect on reversed passive Arthus reaction” value ([2]; percutaneous administration) is reported as “significantly depresses the reversed passive Arthus reaction”. It also gave an LD50 ([3]; ip, female, intraperitoneal) of 1260 mg/kg, an LD50 ([3]; ip, male, intraperitoneal) of 1040 mg/kg and an LD50 ([3]; po, female) of 6310 mg/kg. The LD50 ([3]; po, male) was 4650 mg/kg, the LD50 ([3]; sc, female, subcutaneous) was > 5000 mg/kg and the LD50 ([3]; sc, male, subcutaneous) was > 5000 mg/kg. The “acute toxicity” value (Jcl:ICR mice) was “low in toxicity and can be safely administered”, the LD50 ([4]; ip, female, intraperitoneal) was 580 mg/kg and the LD50 ([4]; ip, male, intraperitoneal) was 650 mg/kg. For the same molecule, the LD50 ([4]; po, female) was 2380 mg/kg, the LD50 ([4]; po, male) was 2730 mg/kg and the LD50 ([4]; sc, female, subcutaneous) was > 6500 mg/kg. For the same molecule, the LD50 ([4]; sc, male, subcutaneous) was > 6500 mg/kg, the cumulative skin irritation ([5]; 2.5% ointment (white petrolatum base)) was “no cumulative skin irritation” and the cumulative skin irritation ([5]; 5% ointment (white petrolatum base)) was “no cumulative skin irritation”.
